“Also recorded” adds a separate entry of the source. Where two headings read alike, the source gives them in different places.
Columns and labels:
[1] = tested on: murine hepatitis virus (MHV); design: method as in not printed at the place; details: tunicamycin treatment; ref not given; cited from earlier work
[2] = design: method as in not printed at the place; details: clinical use; ref not given; cited from earlier work
[3] = MTS-based cell viability assay in Vero cells; details: African green monkey, 96 h per table footnote, read-out: CC50 (SARS-CoV-2 block)
Protocol: (§1) LR7, LLC-Mk2 or Vero cells were seeded in 96-well plates and cultured overnight. Next, the medium was changed to a new one supplemented with different concentrations (in triplicate) of analyzed compounds. Following the 2 days (LR7 and Vero) or 4 days (LLC-Mk-2) of incubation, CellTiter 96 AQueous nonradioactive cell proliferation assay (Promega) was performed according to the manufacturer’s instruction. The half-maximal cytotoxic concentration (CC50) was calculated as the concentration of a compound needed to reduce cell viability by 50% using GraphPad Prism software (version 5.01, GraphPad Software, San Diego, CA).

[4] = tested on: murine hepatitis virus strain A59 (MHV); experiment: Reduction of MHV cytopathic effect (CPE) in LR7 cells, MTS/PMS readout; format: cell-based
Protocol: LR7 cells were seeded in a 96-well plate and cultured overnight. Next, the cells were infected with MHV at an MOI value of 0.01 in medium without FBS. Following 1 h of incubation, the medium containing the virus was collected and cells were covered with a medium supplemented with different concentrations (in triplicate) of the analyzed compounds or DMSO. 24 h p.i. cells viability was evaluated by CellTiter 96 AQueous nonradioactive cell proliferation assay (Promega) according to the manufacturer’s instruction.

[5] = tested on: SC-VLP entry into HEK-hACE2 cells; experiment: SARS-CoV-2 VLP (SC-VLP) internalization assay in HEK-hACE2 cells, luciferase; format: cell-based; details: 12.5 μM during SC-VLP production
[6] = MTS-based cell viability assay in LLC-Mk2 cells; details: Macaca mulatta, read-out: CC50 (HCoV-NL63 block)
Protocol: as §1

HCoV-NL63 RNA synthesis = experiment: HCoV-NL63 RNA level in infected LLC-Mk2 cells, RT-PCR; format: cell-based, human coronavirus NL63; details: MOI 0.01, 96 h p.i.
Protocol: LR7 or LLC-Mk2 were cultured in 12-well plate overnight. Next, LR7 cells were infected with MHV at an MOI value of 1 for 1 h or LLC-Mk2 cells were infected with HCoV-NL63 at an MOI value of 0.01 for 2 h. Following removal of unbound virus, cells were cultured with medium supplemented with different concentrations of selected compounds. 8 h p.i. (MHV) or 96 h p.i. (HCoV-NL63) cells were collected and total RNA was isolated by CoV RNA kit (A&A Biotechnology, Poland) according to the manufacturer’s instruction. To evaluate levels of viral RNA in infected cells Qiagen One-Step RT-PCR reaction was performed. Following reverse transcription, the PCR reaction was carried out using primers: F: […], R: […] for amplification of a fragment of HCoV-NL63 genome (position: 26418–26960 bp NC_005831.2) and F: […] and R: […] for amplification of a fragment of MHV genome (position: 30341–30902 bp FJ647225.1). For internal control fragment of β-actin mRNA was reverse transcribed and amplified using primers For: […] and Rev: […].

[7] = tested on: human coronavirus strain NL63 (HCoV-NL63); experiment: HCoV-NL63 N protein expression in LLC-Mk2 cells, Western blot and densitometry; format: cell-based; details: 50 μM, MOI 0.01, 4 days p.i., Western blot/densitometry
Protocol: LLC-Mk2 monolayers grown in 24-well plates were infected with HCoV-NL63 at an MOI value of 0.01 for 2 h. Unbound virus was removed, and cells were cultured in medium supplemented with different concentrations of compounds. Four days postinfection, cells were collected and lysed in CellLyticM Cell Lysis Reagent (Sigma). Following the protein separation by SDS-PAGE and transfer to PVDF membranes, proteins were immunoblotted using specific mouse anti-N NL63 Abs (Eurofins, Spain) or rabbit anti-β-catenin Abs (Santa Cruz), followed by antimouse or antirabbit secondary antibodies conjugated with HRP. Proteins were visualized and analyzed by chemiluminescence using the UVITEC Cambridge Alliance MINI HD detection system. The densitometric analysis of cells treated with 50 μM dose of a panel of glycoconjugates was performed based on three biological replicates of N and β-catenin immunoblots. The N protein levels were expressed as a percentage relative to DMSO-treated infected cells, while β-catenin levels were expressed as a percentage relative to noninfected control cells. The data were presented as the ratio of N/β-catenin for each sample, normalized accordingly.

[8] = MTS-based cell viability assay in LR7 cells; design: species or system mouse; details: mouse, LR7 cells, 48 h, 0–100 μM, read-out: CC50 (MHV block)
Protocol: as §1

LR7 cells = experiment: MTS-based cell viability assay in LR7 cells; design: species or system mouse; details: 50 μM, uninfected LR7 cells
Protocol: as §1

SARS-CoV-2 = SARS-CoV-2 infectivity in supernatants of infected Vero cells, plaque assay; format: cell-based; details: read-out: IC50 (SARS-CoV-2)
Protocol: Vero cells were seeded in appropriate plates and allowed to reach an approximately 90% confluence. For infection, 200 μL of viral suspension containing 10^5 pfu (SARS-CoV-2 strain SARS-CoV-2/human/Czech Republic/951/2020) was added to each well and incubated for 2 h at 37 °C to allow virus adsorption. After the incubation, the viral medium was removed, and the wells were washed gently with phosphate-buffered saline (PBS). Test compounds were prepared in serial dilutions to final concentrations of 50, 25, 12.5, 6.25, 3.125, and 0 μM in the medium (DMEM containing 2% FBS). The compounds were added in quadruplicate to the infected cells. The plates were then incubated for 48 h at 37 °C. Following the 48 h treatment period, the supernatants were removed, and plaque assays in Vero E6 cells were performed to assess viral titers. Cells were fixed and stained 4 days after infection to visualize plaques, as described previously.
(§2) The half-maximum inhibitory concentration value (IC50) indicating the concentration of compound needed to reduce virus titer by 50% in comparison to the control, was evaluated by GraphPad software (version 5.01, GraphPad Software, San Diego, CA).

[9] = tested on: human coronavirus strain NL63 (HCoV-NL63); experiment: HCoV-NL63 titer in medium of infected LLC-Mk2 cells, foci-forming assay; format: cell-based
Protocol: LR7 or LLC-Mk2 cells were infected at a MOI of 0.01 with MHV and HCoV-NL63, respectively, and treated with selected compounds at a concentration ranging from 0 to 50 μM. Culture supernatants were collected 1 day (MHV) or 4 days (HCoV-NL63) after infection. […]
as §2

[10] = tested on: murine hepatitis virus strain A59 (MHV); experiment: MHV titer in medium of infected LR7 cells, plaque assay; format: cell-based; details: for IC50: Murine coronavirus
Protocol: LR7 or LLC-Mk2 cells were infected at a MOI of 0.01 with MHV and HCoV-NL63, respectively, and treated with selected compounds at a concentration ranging from 0 to 50 μM. Culture supernatants were collected 1 day (MHV) or 4 days (HCoV-NL63) after infection. Virus titer was determined by plaque assay.
as §2

Molecule: tunicamycin
- effect on MHV viral titers [1]: significantly reducing viral titers

Molecule: CCCC(=O)O[C@H]1CN2CC[C@H](O)[C@@H]2[C@@H](O)[C@@H]1O [celgosivir]
- adverse effects in humans [2]: diarrhea, weight loss, and flatulence

Molecule: CC(=O)OC[C@H]1O[C@@H](SCc2cn(C[C@H]3O[C@@H](n4ccc(=O)[nH]c4=O)[C@H](O[Si](C)(C)C(C)(C)C)[C@@H]3O[Si](C)(C)C(C)(C)C)nn2)[C@H](OC(C)=O)[C@@H](OC(C)=O)[C@H]1OC(C)=O [Compound 21, 2′,3′-di-O-tert-Butyldimethylsilyl-5′-deoxy-5′-[4-(2″,3″,4″,6″-tetra-O-acetyl-β-D-galactopyranosylthiomethyl)-1,2-3-triazol-1-yl]-uridine]
- CC50 at 96 h [3]: > 100 µM
- protection against MHV-induced CPE ([4]; 50 μM, MOI 0.01, 24 h): significantly reduced cell death; also recorded: nearly eliminating CPE
- concentration above which MHV-induced CPE was significantly reduced ([4]; MOI 0.01, 24 h p.i.): above 6.25 μM
- reduction of SC-VLP entry compared with the control [5]: 80%
- CC50 at 96 h [6]: 46.7 µM
- concentration that effectively suppressed HCoV-NL63 RNA synthesis (HCoV-NL63 RNA synthesis): 12.5 µM
- HCoV-NL63 N protein level [7]: significantly reduced; also recorded: No N protein was detected
- CC50 at 48 h [8]: 65.3 µM
- reduction of cell viability (cytotoxicity in uninfected cells) (LR7 cells): no detectable toxicity
- IC50 (SARS-CoV-2; Severe acute respiratory syndrome coronavirus 2, Vero): 19 µM
- IC50 (SARS-CoV-2; Severe acute respiratory syndrome coronavirus 2, Vero cells, supernatant 48 h after infection, plaque assay): ~19 µM
- IC50 ([9]; 96 h, virus titer released from LLC-Mk2 cells, MOI 0.01, 4 days p.i., read-out: IC50 (HCoV-NL63)): 5.7 µM
- IC50 ([9]; LLC-MK2, read-out: IC50 (HCoV-NL63)): 5.56 µM
- antiviral efficacy against HCoV-NL63 compared with compound 24 ([9]; dose-response 0–25 μM, LLC-Mk2 cells): slightly lower activity
- dose above which no virus was detectable (MHV titer) ([10]; LR7 cells, 24 h p.i., plaque assay): above 6.25 μM
- IC50 ([10]; LR7, read-out: IC50 (MHV)): 4.51 µM
- IC50 ([10]; virus titer released from LR7 cells, MOI 0.01, 24 h p.i., plaque assay, read-out: IC50 (MHV)): 4.5 µM

Molecule: CCCCN1C[C@H](O)[C@@H](O)[C@H](O)[C@H]1CO [miglustat]
- adverse effects in humans [2]: diarrhea, weight loss, and flatulence

Source: paper PMC12406196, “Anticoronavirus Activity of Uridine Glycoconjugates Containing a 1,2,3-Triazole Moiety” (Journal of Medicinal Chemistry, 2025)
